Measurements published in PubChem BioAssay (NCI).
Values joined by “and” are separate entries in the source; they are usually repeats but may differ in a detail not shown here. Equal entries are not always repeated.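 Results reflect a 48-hour exposure of cells in 96-well plates to compound at five concentrations. Abbreviation: GI50, concentration required for 50% inhibition of growth. At the TGI there is no net growth.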

Key:
Test in all cases: growth of human tumour cells (NCI), 48 h
[1] = test system: DU-145 prostate
[2] = test system: HCT-116 colon
[3] = test system: HOP-62 NSCLC
[4] = test system: HOP-92 NSCLC
[5] = test system: IGROV1 ovarian
[6] = test system: NCI-H23 lung
[7] = test system: NCI-H522 lung
[8] = test system: SW-620 colon
[9] = test system: DLD-1 colon
[10] = test system: SNB-78 CNS

Compound | GI50 [1] | TGI [1] | GI50 [2] | TGI [2] | GI50 [3] | TGI [3] | GI50 [4] | TGI [4] | GI50 [5] | TGI [5] | GI50 [6] | TGI [6] | GI50 [7] | TGI [7] | GI50 [8] | TGI [8] | TGI [9] | TGI [10]
O=c1cnnc(N/N=C/c2ccccc2O)[nH]1 | 6.58 µM | > 100 µM | 0.0337 µM | > 100 µM | 6.01 µM | 53.7 µM | 4.75 µM | > 100 µM | 3.2 µM | 16.7 µM | 1.21 µM | > 100 µM | 1.26 µM | > 30.5 µM | 0.442 µM | > 100 µM |  | 
CC1(C)N=C(N)N=C(N)N1c1ccc(Cl)cc1 | 5.35 µM | > 100 µM | 0.627 µM | > 100 µM | 3.54 µM | > 100 µM | > 100 µM | > 100 µM | 2.27 µM | > 100 µM | 2.51 µM | > 100 µM | 14.6 µM | > 100 µM | 0.832 µM | > 100 µM |  | 
COC(=O)c1cc2oc(/C=C3/SC(=S)N(N)C3=O)cc2n1Cc1ccccc1 | 3.59 µM | 15.7 µM | 5.73 µM | 18.9 µM | 6.59 µM | 25.6 µM | 1.47 µM | 12.8 µM | 1.35 µM | 4.82 µM | 4.46 µM | 21.2 µM | 7.81 µM | 21.8 µM | 13.4 µM | > 29.5 µM |  | 
CCc1cnn2c(NCc3ccc[n+]([O-])c3)cc(N3CCCC[C@H]3CCO)nc12 | < 0.0127 µM and 0.00728 µM | > 10 µM | < 0.01 µM and 0.00345 µM | > 100 µM | < 0.01 µM and 0.00415 µM | 0.0351 µM | < 0.0142 µM and 0.00299 µM | < 0.0269 µM and 0.0145 µM | < 0.01 µM and 0.0033 µM | > 10 µM | < 0.01 µM and 0.00416 µM | 0.0174 µM and 0.0214 µM | < 0.01 µM and 0.00219 µM | < 0.01 µM and 0.00549 µM | < 0.01 µM and 0.00322 µM | > 100 µM |  | 
CC(C)(c1ccccc1)c1cc(O)c(C(C)(C)c2ccccc2)cc1O | 3.83 µM | 16.2 µM | 1.35 µM | 3.36 µM | 3.06 µM | 13.4 µM | 1.75 µM | 6.66 µM | 2.7 µM | 13.3 µM | 2.27 µM | 16.2 µM | 3.67 µM | 16.7 µM | 2.77 µM | 14.6 µM |  | 
Cc1ccc(C=C2C(Cl)=C(Cl)C(Cl)=C2Cl)cc1 | 0.926 µM | 3.13 µM | 0.358 µM | 1.04 µM | 2.13 µM | 4.44 µM | 1.33 µM | 4.35 µM | 0.553 µM | 1.64 µM | 0.533 µM | 2.5 µM | 0.322 µM | 1.01 µM | 0.339 µM | 1.18 µM |  | 
C#Cc1cccc(Nc2ncnc3ccc(OCCCCNCCS(C)(=O)=O)cc23)c1 | 4.34 µM | > 25 µM | 6.81 µM | > 18.7 µM | 11.5 µM | > 25 µM | 1.68 µM | 14.4 µM | 2.12 µM | > 16.3 µM | 16.7 µM | > 25 µM | 2.97 µM | 7.86 µM | 9.43 µM | > 25 µM |  | 
COC(=O)c1ncc2c(=O)[nH]c3ccccc3c2c1C(=O)OC |  |  |  | > 100 µM |  | > 100 µM |  | > 100 µM |  | > 100 µM |  | > 100 µM |  |  |  | > 100 µM | > 100 µM | > 100 µM
COc1ccc(NC2=C(I)C(=O)c3ncccc3C2=O)cc1 | 0.524 µM | 1.87 µM | 0.494 µM | 2.51 µM | 0.457 µM | 1.87 µM | 1.48 µM | 3.78 µM | 0.417 µM | 1.93 µM | 0.327 µM | 1.68 µM | 0.827 µM | 2.53 µM | 1.13 µM | 3.06 µM |  | 
CC(C)(C)C(=O)Nc1cccc2oc(-c3ccccc3)cc12 |  |  |  |  |  | > 100 µM |  | 96.4 µM |  | > 100 µM |  | > 100 µM |  |  |  | > 100 µM | > 100 µM | > 100 µM
COc1c(/C=C/C=O)cc2c(c1OC)OCO2 |  | > 100 µM |  | > 100 µM |  | 73.7 µM |  | > 100 µM |  | 82.4 µM |  | > 100 µM |  | > 100 µM |  | > 100 µM |  | 
O=C(NCCCl)Nc1cccnc1 |  | 29.4 µM |  | 32 µM |  | > 100 µM |  | 53.3 µM |  | 35.6 µM |  | 46.2 µM |  | 62.1 µM |  | > 100 µM |  | 
N#Cc1c(NC(=O)c2ccc(F)cc2)sc2c1CCCC2 | > 25 µM | > 25 µM | > 25 µM | > 25 µM | > 25 µM | > 25 µM | > 25 µM | > 25 µM | > 25 µM | > 25 µM | > 25 µM | > 25 µM | > 25 µM | > 25 µM | > 25 µM | > 25 µM |  | 
Cc1[nH]c2ccccc2c1CC/C(=N\Nc1ccccc1)c1ccccc1 |  |  |  | > 100 µM |  | > 100 µM |  |  |  | > 100 µM |  | > 100 µM |  |  |  | > 100 µM | > 100 µM | > 100 µM
COC1=C(C)C(=O)c2c(c(CCCl)c3n2CCC3OC(C)=O)C1=O (stereo not given) | 0.0248 µM | 1.69 µM | 0.791 µM | > 22.8 µM | 0.122 µM | 0.793 µM | 4.48 µM | 24 µM | 1.65 µM | 10.1 µM | 0.0586 µM | 0.992 µM | 0.192 µM | 0.85 µM | 0.453 µM | 12.3 µM |  | 
CN(C)CC(=O)Nc1ccc2ncnc(Nc3ccc(Oc4cccc(C(F)(F)F)c4)c(Cl)c3)c2c1 | 2.13 µM | 6.78 µM | 1.65 µM | 3.03 µM | 2.09 µM | 5.71 µM | 1.27 µM | 3.55 µM | 1.17 µM | 3.03 µM | 3.79 µM | 14.8 µM | 1.8 µM | 5.37 µM | 1.66 µM | 3.3 µM |  | 
CCOC(=O)C1=C(C)NC(=O)NC1CN1C(=O)c2ccccc2C1=O (stereo not given) | > 100 µM | > 100 µM | > 100 µM | > 100 µM | > 100 µM | > 100 µM | > 100 µM | > 100 µM | > 100 µM | > 100 µM | > 100 µM | > 100 µM | > 100 µM | > 100 µM | > 100 µM | > 100 µM |  | 
